Results on one compound are retold here after patent US20230149374A1, “METHODS AND COMPOSITIONS FOR TREATING ATHEROSCLEROSIS” (Sanford Burnham Prebys Medical Discovery Institute, priority 2021, published 2023).

The test system of this data set is ApoE-deficient mice. In words: Liver content of cholesterol, triglycerides, bile acids, hydroxyproline. Conditions: 30 mg/kg/day, 25 weeks, vs control. In kind it is in vivo, mouse. An excerpt:
Four cohorts of mice were used in these studies (FIGS. 8A and 9A). Cohorts 1 and 2 were devoted to the in vivo and ex vivo characterization of TNAP-associated plaque calcification. 6-week-old ApoE-deficient male mice were received at the animal facility and placed in conventional cages with 5 mice per cage. Mice were maintained on a 12-hrs light-dark cycle (7:00 am-7:00 pm) and were supplied with food and water ad libitum. From 10 weeks of age, they were fed ad libitum with a high fat diet (HFD, D12108C, Research Diets, New Brunswick, USA) containing 40% fat (kcal) and 1.25% cholesterol (weight). In cohort 1, 8 mice were sacrificed every 2 weeks between weeks 17 to 31, for histological and molecular analyses. Total body weight was measured weekly after starting the HFD. The sacrifice was done after anesthesia with isoflurane and intracardiac blood puncture by CO2 inhalation. Tissues were harvested as described below. The abdominal aorta was used for quantitative polymerase chain reaction (PCR) analyses. Mice from cohort 2 were used to analyze aorta calcification with ^18F—NaF μPET and μCT and to compare the in vivo data with the ex vivo results obtained in cohort 1. Animals were transferred from the animal facility to the Cermep imaging platform. Cohorts 3 and 4 were used to determine in vivo and ex vivo the impact of TNAP inhibition on the vasculature, liver, bones, and kidneys. According to the results obtained in cohorts 1 and 2, TNAP inhibitor SBI-425 (30 mg/kg/day, formulated as a food admixture in the HFD) was administered in a preventive manner from 10 weeks of age. Treatment was stopped at 25 weeks or 31 weeks of age. Plaque calcification was analyzed at 25 weeks, and possible side effects of TNAP inhibition were explored in mice aged 31 weeks. Mice in cohort 3 (2 groups of 13 mice) were used for ex vivo analysis, and mice in cohort 4 (2 groups of 12 mice) for in vivo imaging and ex vivo analyses.
For the determination of cholesterol, triglycerides, and total bile acids in liver, 40-mg pieces of liver were homogenized in 1 mL of 5% NP40 solution in a dounce homogenizer. The hydrophobic components were extracted twice at 80° C. for 5 minutes. The samples were centrifuged, and the supernatants were assayed for cholesterol, triglycerides and bile acids with the same kits used for blood. In order to quantify hydroxyproline, 100 mg pieces of liver were homogenized in 1 mL of pure water in a dounce homogenizer and a perchlorate-free kit from Sigma was used (MAK357).

Structures are written as SMILES.

With `COc1ccc(Cl)cc1S(=O)(=O)Nc1cncc(C(N)=O)c1` [SBI-425], the “liver TG content” value is given as “not increased”, the “liver bile acids levels” value is recorded as “did not change”, the liver cholesterol levels result is on record as “did not change” and the “liver hydroxyproline levels (liver fibrosis)” value was “unchanged”.
